# Assay results taken from paper PMC9273165, “Metal-free domino amination-Knoevenagel condensation approach to access new coumarins as potent nanomolar inhibitors of VEGFR-2 and EGFR” (Green chemistry letters and reviews, 2021).
# Where “and” joins values, the source holds several entries; their conditions need not be identical. Equal entries are not always repeated. Where two headings read alike, the source gives them in different places. Starred links: 1 amine or outer side, 2 acyl side, 3 side chain; linkers in the order of their positions; H or OH if unused. Positions of bridges follow the written chain, without caps; N, C: chain ends. Non-standard residues stand in square brackets, D forms with d. Residues, ends and D or L forms follow the SMILES beside them. Chains are numbered I, II in the order given. Actinocin(9to1) = Cc1c2oc3c(C)ccc(C(=O)[*:1])c3nc-2c(C(=O)[*:2])c(N)c1=O; NMeV = CN[C@H](C(=O)O)C(C)C; Sar = CNCC(=O)O
# Key:
# KB-3-1 cell line = test: resazurin-based cytotoxicity assay, KB-3-1
# Protocol: Anti-cervical cancer activity of all the synthesized compounds was evaluated for their in vitro cytotoxicity toward KB-3-1 cell line by resazurin-based assay [49] using (+)-griseofulvin as a positive control.
# Anti-cervical cancer activity of all the synthesized compounds were evaluated for the in vitro cytotoxicity toward KB-3-1 cell line (was obtained from the American Type Culture Collection, ATCC, Rockville, MD, USA) by resazurin-based assay [49] using (+)-griseofulvin as a positive control.
# [1] = tested on: A549 (non-small cell lung) human cancer cell line; test: resazurin-based cytotoxicity assay, A549; assay type: cell-based; conditions: for IC50: A549 (non-small cell lung), 72 h incubation, mean ± SD of triplicate wells
# Text: (§1) (Table 2, Figure 3). […] The remaining molecules pretended with low cytotoxic effect. Grounded on these outcomes, we concluded that the 4-AMP and morpholine moieties would be the optimal cyclic secondary amines in this study.
# [2] = tested on: PC3 (prostate) human cancer cell line; test: resazurin-based cytotoxicity assay, PC3; assay type: cell-based; conditions: for IC50: PC3 (prostate), 72 h incubation, mean ± SD of triplicate wells
# Text: as §1
# VEGFR-2 (KDR) = target: T1, VEGFR-2 (KDR) (Homo sapiens, UniProt P35968); test: VEGFR-2 (KDR) Kinase Assay Kit, luminescence; assay type: biochemical; conditions: for VEGFR-2 Fold to sorafenib: IC50 relative to the standard sorafenib; for IC50: kinase assay kit, luminescence
# T1 construct: purchased 40325
# Protocol: (§2) Overexpression and/or hyperactivation of VEGFR-2 and EGFR kinases are strongly associated with several malignant cancers such as non-small cell lung carcinoma (NSCLC), breast, ovarian, colon, and prostate cancers. Targeting one or both of them is a promising pathway to explore more anti-angiogenic inhibitors. […] At the end of the experiment, the luminescence was measured by Tecan spark microplate reader. The compounds concentration that inactivate 50% of the measured kinases was separately, calculated using a curve fitting software; Prism, version 6.
# EGFR kinase = target: T2, EGFR kinase (Homo sapiens, UniProt P00533); test: EGFR Kinase Assay Kit, luminescence; assay type: biochemical; conditions: for EGFR Fold to erlotinib: IC50 relative to the standard erlotinib; for IC50: kinase assay kit, luminescence
# T2 construct: purchased 40321
# Protocol: as §2
# [3] = Homo sapiens, KB 3-1, read-out: IC50 (μM) KB-3-1
# [4] = KB-3-1 (cervix) human cancer cell line, mean ± SD of two independent determinations
# T1 sequence (P35968 20-1356): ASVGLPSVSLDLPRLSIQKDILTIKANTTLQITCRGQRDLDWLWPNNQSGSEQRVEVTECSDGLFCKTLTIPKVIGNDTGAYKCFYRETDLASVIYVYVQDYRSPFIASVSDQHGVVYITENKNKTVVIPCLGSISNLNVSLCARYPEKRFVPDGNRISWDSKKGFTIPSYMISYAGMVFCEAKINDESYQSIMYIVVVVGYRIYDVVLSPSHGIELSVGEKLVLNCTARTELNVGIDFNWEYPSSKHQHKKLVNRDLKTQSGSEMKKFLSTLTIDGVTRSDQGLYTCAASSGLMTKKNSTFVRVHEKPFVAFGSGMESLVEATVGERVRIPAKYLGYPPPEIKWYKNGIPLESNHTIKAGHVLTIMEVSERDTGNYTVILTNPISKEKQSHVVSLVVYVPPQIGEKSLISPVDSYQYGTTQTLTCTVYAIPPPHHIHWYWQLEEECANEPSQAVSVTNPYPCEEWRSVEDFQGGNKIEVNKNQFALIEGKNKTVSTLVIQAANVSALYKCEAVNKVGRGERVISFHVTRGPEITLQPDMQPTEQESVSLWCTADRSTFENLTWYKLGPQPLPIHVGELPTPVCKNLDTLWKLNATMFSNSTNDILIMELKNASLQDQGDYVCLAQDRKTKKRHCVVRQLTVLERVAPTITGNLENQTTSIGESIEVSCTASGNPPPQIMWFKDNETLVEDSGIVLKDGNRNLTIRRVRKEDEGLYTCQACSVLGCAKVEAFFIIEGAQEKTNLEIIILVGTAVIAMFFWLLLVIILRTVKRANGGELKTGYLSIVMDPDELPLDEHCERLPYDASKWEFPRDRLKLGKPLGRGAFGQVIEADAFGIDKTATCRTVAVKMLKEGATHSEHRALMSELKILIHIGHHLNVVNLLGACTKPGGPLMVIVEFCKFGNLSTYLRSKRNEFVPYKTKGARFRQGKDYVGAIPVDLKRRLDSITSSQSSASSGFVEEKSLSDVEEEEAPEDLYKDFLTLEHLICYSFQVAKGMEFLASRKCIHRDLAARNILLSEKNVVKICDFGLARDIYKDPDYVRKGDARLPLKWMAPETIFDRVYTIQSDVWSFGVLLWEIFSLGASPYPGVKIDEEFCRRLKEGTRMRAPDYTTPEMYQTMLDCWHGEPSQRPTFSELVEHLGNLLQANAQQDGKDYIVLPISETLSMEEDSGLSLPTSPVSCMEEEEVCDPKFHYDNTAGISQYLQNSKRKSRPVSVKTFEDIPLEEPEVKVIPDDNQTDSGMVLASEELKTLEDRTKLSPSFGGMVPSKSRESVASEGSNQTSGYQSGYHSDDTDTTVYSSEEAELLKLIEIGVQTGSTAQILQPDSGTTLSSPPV
# T2 sequence (P00533 25-1210): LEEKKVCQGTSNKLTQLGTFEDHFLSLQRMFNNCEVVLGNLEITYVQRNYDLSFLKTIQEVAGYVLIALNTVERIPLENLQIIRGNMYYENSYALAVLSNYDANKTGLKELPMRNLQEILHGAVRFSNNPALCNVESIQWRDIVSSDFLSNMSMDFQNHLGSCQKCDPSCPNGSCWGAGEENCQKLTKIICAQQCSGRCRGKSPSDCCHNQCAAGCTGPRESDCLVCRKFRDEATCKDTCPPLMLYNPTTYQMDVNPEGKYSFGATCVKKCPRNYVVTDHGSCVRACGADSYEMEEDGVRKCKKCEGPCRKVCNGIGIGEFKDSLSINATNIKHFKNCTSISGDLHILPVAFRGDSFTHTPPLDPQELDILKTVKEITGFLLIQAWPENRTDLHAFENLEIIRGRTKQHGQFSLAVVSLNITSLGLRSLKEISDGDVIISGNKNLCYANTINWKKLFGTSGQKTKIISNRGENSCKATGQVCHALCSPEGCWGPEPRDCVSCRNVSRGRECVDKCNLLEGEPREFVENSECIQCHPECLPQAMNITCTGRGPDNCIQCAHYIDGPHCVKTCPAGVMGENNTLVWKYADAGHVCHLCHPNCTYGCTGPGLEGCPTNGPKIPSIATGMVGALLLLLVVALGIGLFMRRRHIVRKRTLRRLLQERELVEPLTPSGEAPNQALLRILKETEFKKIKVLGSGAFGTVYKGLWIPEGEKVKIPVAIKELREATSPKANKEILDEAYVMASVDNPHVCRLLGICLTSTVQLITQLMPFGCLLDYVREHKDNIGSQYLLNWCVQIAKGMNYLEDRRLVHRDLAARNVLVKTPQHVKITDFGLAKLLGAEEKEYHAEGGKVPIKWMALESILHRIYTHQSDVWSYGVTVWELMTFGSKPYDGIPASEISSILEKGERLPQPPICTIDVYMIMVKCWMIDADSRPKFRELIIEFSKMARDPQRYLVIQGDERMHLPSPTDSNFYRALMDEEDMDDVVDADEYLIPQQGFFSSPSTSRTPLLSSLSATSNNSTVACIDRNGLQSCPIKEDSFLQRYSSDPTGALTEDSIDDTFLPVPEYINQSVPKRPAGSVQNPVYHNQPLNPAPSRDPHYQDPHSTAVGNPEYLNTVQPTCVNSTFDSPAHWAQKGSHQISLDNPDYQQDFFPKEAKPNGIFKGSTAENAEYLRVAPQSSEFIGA
melting point [°C],VEGFR-2 Fold to sorafenib (VEGFR-2 (KDR)) [fold],IC50 (VEGFR-2 (KDR)),EGFR Fold to erlotinib (EGFR kinase) [fold],IC50 (EGFR kinase),SMILES,"IC50 (KB-3-1 cell line; read-out: IC50 (μM) KB-3-1, KB-3-1 (cervix) human cancer cell line, mean ± SD of two independent determinations) [µM]","viability at 20 µM ([1]; A549, positive control at 20 μM, 72 h, read-out: viable cells) [%]","viability at 20 µM ([2]; PC3, positive control at 20 μM, 72 h, read-out: viable cells) [%]",IC50 [1] [µM],IC50 [2] [µM],IC50 (KB-3-1 cell line; [3]) [µM],IC50 (μM) KB-3-1 (KB-3-1 cell line; [4])
190 to 192,–,–,–,–,"O=Cc1c(N2CCCC2)c2ccccc2oc1=O [Compound 5a, 4-Pyrrolidino-3-formyl-2H-chromen-2-one]",–,–,–,> 80,> 80,> 100,no activity
150 to 152,–,–,–,–,"O=Cc1c(N2CCOCC2)c2ccccc2oc1=O [Compound 5d, 4-Morpholino-3-formyl-2H-chromen-2-one]",–,–,–,> 50,31.1,> 100,–
208 to 210,2.8,0.088 µM and 0.0881 µM,3.6,0.096 µM and 0.0963 µM,"O=Cc1c(NCC2CCNCC2)c2ccccc2oc1=O [Compound 5e, 4-((Piperidin-4-ylmethyl)amino)-3-formyl-2H-chromen-2-one]",–,–,–,> 80,> 80,> 70,–
118 to 120,–,–,–,–,"COc1c(C=O)c(=O)oc2ccccc12 [Compound 5f, 4-Methoxy-3-formyl-2H-chromen-2-one]",–,–,–,> 80,> 80,> 100,no activity
> 320,–,–,–,–,"N#CC(C#N)=C(N)/C(C#N)=C/c1c(N2CCCC2)c2ccccc2oc1=O [Compound 8a, (Z)-2-amino-4-(2-oxo-4-(pyrrolidin-1-yl)-2H-chromen-3-yl)buta-1,3-diene-1,1,3-tricarbonitrile]",–,–,–,> 80,> 80,> 100,–
308 to 310,–,–,–,–,"N#CC(C#N)=C(N)/C(C#N)=C/c1c(N2CCCCC2)c2ccccc2oc1=O [Compound 8b, (Z)-2-amino-4-(2-oxo-4-(piperidin-1-yl)-2H-chromen-3-yl)buta-1,3-diene-1,1,3-tricarbonitrile]",–,–,–,> 80,> 80,> 100,–
294 to 296,–,–,–,–,"N#CC(C#N)=Cc1c(N2CCC(O)CC2)c2ccccc2oc1=O [Compound 8c, 2-((4-(4-Hydroxypiperidin-1-yl)-2-oxo-2H-chromen-3-yl)methylene)malononitrile]",–,–,–,> 80,> 80,> 100,–
196 to 198,–,–,–,–,"N#CC(C#N)=Cc1c(N2CCOCC2)c2ccccc2oc1=O [Compound 8d, 2-((4-Morpholino-2-oxo-2H-chromen-3-yl)methylene)malononitrile]",–,–,–,> 80,20.16 ± 0.07,> 100,–
204 to 206,–,–,–,–,"O=c1oc2ccccc2c(N2CCCC2)c1[N+](=O)[O-] [Compound 9a, 4-Pyrrolidino-3-nitro-2H-chromen-2-one]",–,–,–,> 80,> 80,> 100,–
210 to 212,0.8,0.024 µM and 0.0243 µM,6.2,0.165 ± 0.008 µM,"O=c1oc2ccccc2c(N2CCOCC2)c1[N+](=O)[O-] [Compound 9d, 4-Morpholino-3-nitro-2H-chromen-2-one]",–,–,–,19.8 ± 0.56,7.31 ± 0.48,> 70,–
208 to 210,–,–,–,–,"O=c1oc2ccccc2c(NCC2CCNCC2)c1[N+](=O)[O-] [Compound 9e, 4-((Piperidin-4-ylmethyl)amino)-3-nitro-2H-chromen-2-one]",–,–,–,> 80,> 80,> 100,no activity

# More lines, now with the values behind:
SMILES,melting point [°C],VEGFR-2 Fold to sorafenib (VEGFR-2 (KDR)) [fold],IC50 (VEGFR-2 (KDR)),EGFR Fold to erlotinib (EGFR kinase) [fold],IC50 (EGFR kinase),"IC50 (KB-3-1 cell line; read-out: IC50 (μM) KB-3-1, KB-3-1 (cervix) human cancer cell line, mean ± SD of two independent determinations) [µM]","viability at 20 µM ([1]; A549, positive control at 20 μM, 72 h, read-out: viable cells) [%]","viability at 20 µM ([2]; PC3, positive control at 20 μM, 72 h, read-out: viable cells) [%]",IC50 [1] [µM],IC50 [2] [µM],IC50 (KB-3-1 cell line; [3]) [µM],IC50 (μM) KB-3-1 (KB-3-1 cell line; [4])
"COC1=CC(=O)C[C@@H](C)[C@]12Oc1c(Cl)c(OC)cc(OC)c1C2=O [(+)-Griseofulvin, (+)-griseofulvin, reference compound]",–,–,–,–,–,19 ± 2.83,–,–,–,–,–,–
"Cc1c2oc3c(C)ccc(C(=O)N[C@@H]4C(=O)N[C@H](C(C)C)C(=O)N5CCC[C@H]5C(=O)N(C)CC(=O)N(C)[C@@H](C(C)C)C(=O)O[C@@H]4C)c3nc-2c(C(=O)N[C@@H]2C(=O)N[C@H](C(C)C)C(=O)N3CCC[C@H]3C(=O)N(C)CC(=O)N(C)[C@@H](C(C)C)C(=O)O[C@@H]2C)c(N)c1=O [Actinomycin D, reference compound] (I: T[dV]P[Sar][NMeV] / II: T[dV]P[Sar][NMeV]; ester I:1-I:C, II:1-II:C; linker I:N-II:N via Actinocin(9to1))",–,–,–,–,–,–,0,0,–,–,–,–
"COC(=O)/C(C#N)=C/c1c(N2CCCC2)c2ccccc2oc1=O [Compound 4a, Methyl (E)-2-cyano-3-(2-oxo-4-(pyrrolidin-1-yl)-2H-chromen-3-yl)acrylate]",230 to 232,–,–,–,–,–,–,–,> 80,> 80,> 100,no activity
"COC(=O)/C(C#N)=C/c1c(N2CCCCC2)c2ccccc2oc1=O [Compound 4b, Methyl (E)-2-cyano-3-(2-oxo-4-(piperidin-1-yl)-2H-chromen-3-yl)acrylate]",192 to 194,–,–,–,–,–,–,–,> 80,> 50,> 100,no activity
"COC(=O)/C(C#N)=C/c1c(N2CCC(O)CC2)c2ccccc2oc1=O [Compound 4c, Methyl (E)-2-cyano-3-(4-(4-hydroxypiperidin-1-yl)-2-oxo-2H-chromen-3-yl)acrylate]",194 to 196,–,–,–,–,–,–,–,> 80,> 50,> 100,–
"COC(=O)/C(C#N)=C/c1c(N2CCOCC2)c2ccccc2oc1=O [Compound 4d, Methyl (E)-2-cyano-3-(4-morpholino-2-oxo-2H-chromen-3-yl)acrylate]",218 to 220,–,–,–,–,–,–,–,> 80,> 50,> 100,–
"COC(=O)/C(C#N)=C/c1c(NCC2CCNCC2)c2ccccc2oc1=O [Compound 4e, Methyl (E)-2-cyano-3-(2-oxo-4-((piperidin-4-ylmethyl)amino)-2H-chromen-3-yl)acrylate]",172 to 174,1.2,0.037 µM and 0.0368 µM,2.5,0.067 µM and 0.0671 µM,–,–,–,12.9 ± 1.51,11.28 ± 0.06,15.5 ± 3.54,–
"COC(=O)/C(C#N)=C/c1c(OC)c2ccccc2oc1=O [Compound 4f, Methyl (E)-2-cyano-3-(4-methoxy-2-oxo-2H-chromen-3-yl)acrylate]",148 to 150,–,–,–,–,–,–,–,> 80,38.9,> 100,no activity
"N#CC(C#N)=Cc1c(NCC2CCNCC2)c2ccccc2oc1=O [Compound 8e, 2-((2-Oxo-4-((piperidin-4-ylmethyl)amino)-2H-chromen-3-yl)methylene)malononitrile]",154 to 156,0.8,0.025 µM and 0.0247 µM,1.2,0.032 µM and 0.0316 µM,–,–,–,> 50,> 50,21 ± 4.24,–
"COc1c([N+](=O)[O-])c(=O)oc2ccccc12 [Compound 9f, 4-Methoxy-3-nitro-2H-chromen-2-one]",–,–,–,–,–,–,–,–,–,–,> 100,no activity
